Test results reported in patent US12421207B2 (CMG Pharmaceutical Co., Ltd., priority 2022, dated 2025).
pIC50: −log10 of the molar value.

Key:
PC9/ER cells = assay: Cell viability assay (CellTiter-Glo 2.0), erlotinib-resistant PC9/ER cells; type: cell-based; conditions: Homo sapiens, PC-9/ER; Table 4; 72 h drug treatment, combinations of EGFR TKIs and inhibitor of Formula (I); read-out: Relative cell viability; IC50 PC9ER
Text: (§1) To explore c-MET and AXL mechanisms of EGFR TKI resistance, resistant cells of the EGFR TKI hypersensitive EGFR exon 19 mutant NSCLC cell line, HCC827 and PC9 were generated by exposing these cells to increasing concentrations of EGFR TKI for over 3 months.
(§2) Gefitinib-resistant cells were referred to as HCC827/GR. […] Osimertinib-resistant cells were referred to as HCC827/OR.

HCC827/ER cells = assay: Cell viability assay (CellTiter-Glo 2.0), erlotinib-resistant HCC827/ER cells; type: cell-based, human; conditions: Homo sapiens, HCC827ER, Table 4, 72 h drug treatment, combinations of EGFR TKIs and inhibitor of Formula (I), read-out: Relative cell viability
Text: as §1, §2

HCC827/GR cells = assay: Cell viability assay (CellTiter-Glo 2.0), gefitinib-resistant HCC827/GR cells; type: cell-based, human; conditions: Homo sapiens, HCC827; Table 4; 72 h drug treatment, combinations of EGFR TKIs and inhibitor of Formula (I); read-out: Relative cell viability; IC50 HCC827GR
Procedure, shortened: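 Gefitinib-resistant HCC827 cells, derived by over 3 months' escalating EGFR TKI exposure, seeded at 1,000 cells/well. Treated 72 h with a 10-point dose range from 1 nM to 10,000 nM. Viability read by CellTiter-Glo 2.0 luminescence.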

HCC827/OR cells = assay: Cell viability assay (CellTiter-Glo 2.0), osimertinib-resistant HCC827/OR cells; type: cell-based, human; conditions: Homo sapiens, HCC827; Table 4; 72 h drug treatment, combinations of EGFR TKIs and inhibitor of Formula (I); read-out: Relative cell viability; IC50 HCC827OR
Text: as §1, §2

| SMILES | pIC50 (PC9/ER cells) | pIC50 (HCC827/ER cells) | pIC50 (HCC827/GR cells) | pIC50 (HCC827/OR cells) |
| --- | --- | --- | --- | --- |
| C=CCn1cc(C(=O)Nc2ccc(Oc3ccnc(N)c3C#CC(C)(C)N3CCN(C)CC3)c(F)c2)c(=O)n(CC=C)c1=O [Example 68, 1,3-diallyl-N-(4-(2-amino-3-(3-methyl-3-(4-methylpiperazin-1-yl)but-1-ynyl)pyridin-4-yloxy)-3-fluorophenyl)-2,4-dioxo-1,2,3,4-tetrahydropyrimidine-5-carboxamide] | > 5.00 | > 6.00 | > 6.00 | > 6.00 |
| C=CCn1cc(C(=O)Nc2ccc(Oc3ccnc(N)c3C#CCC3CCN(C)CC3)c(F)c2)c(=O)n(CC=C)c1=O [Example 69, 1,3-diallyl-N-(4-(2-amino-3-(3-(1-methylpiperdin-4-yl)prop-1-ynyl)pyridin-4-yloxy)-3-fluorophenyl)-2,4-dioxo-1,2,3,4-tetrahydropyrimidine-5-carboxamide] | > 6.00 | > 6.00 | > 6.00 | > 6.00 |
| C=CCn1cc(C(=O)Nc2ccc(Oc3ccnc(N)c3C#CC(C)(C)N3CCOCC3)c(F)c2)c(=O)n(CC=C)c1=O [Example 70, 1,3-diallyl-N-(4-(2-amino-3-(3-methyl-3-morpholinobut-1-ynyl)pyridin-4-yloxy)-3-fluorophenyl)-2,4-dioxo-1,2,3,4-tetrahydropyrimidine-5-carboxamide] | > 5.00 | > 6.00 | > 6.00 | > 6.00 |
| C=CCn1cc(C(=O)Nc2ccc(Oc3ccnc(N)c3C#CCC3CCNCC3)c(F)c2)c(=O)n(CC=C)c1=O [Example 71, 1,3-dialyl-N-(4-(2-amino-3-(3-(piperidin-4-yl)prop-1-ynyl)pyridin-4-yloxy)-3-fluorophenyl)-2,4-dioxo-1,2,3,4-tetrahydropyrimidine-5-carboxamide] | > 6.00 | > 6.00 | > 6.00 | > 6.00 |

The next lines start with the values.

| pIC50 (PC9/ER cells) | pIC50 (HCC827/ER cells) | pIC50 (HCC827/GR cells) | pIC50 (HCC827/OR cells) | SMILES |
| --- | --- | --- | --- | --- |
| > 6.00 | > 6.00 | > 6.00 | > 6.00 | CC(C)(C#Cc1c(Oc2ccc(NC(=O)c3cn(C4CCOCC4)c(=O)n(-c4ccc(F)cc4)c3=O)cc2F)ccnc1N)N1CCNCC1 [Example 58, N-(4-(2-amino-3-(3-methyl-3-(piperazin-1-yl)but-1-ynyl)pyridin-4-yloxy)-3-fluorophenyl)-3-(4-fluorophenyl)-2,4-dioxo-1-(tetrahydro-2H-pyran-4-yl)-1,2,3,4-tetrahydropyrimidine-5-carboxamide] |
| > 6.00 | > 6.00 | > 6.00 | > 6.00 | Nc1nccc(Oc2ccc(NC(=O)c3cn(C4CCOCC4)c(=O)n(-c4ccc(F)cc4)c3=O)cc2F)c1C#CCC1CCNCC1 [Example 59, N-(4-(2-amino-3-(3-(piperidin-4-yl)prop-1-ynyl)pyridin-4-yloxy)-3-fluorophenyl)-3-(4-fluorophenyl)-2,4-dioxo-1-(tetrahydro-2H-pyran-4-yl)-1,2,3,4-tetrahydropyrimidine-5-carboxamide] |
| > 7.00 | > 7.00 | > 7.00 | > 7.00 | CN1CCC(CC#Cc2c(Oc3ccc(NC(=O)c4cn(C5CCOCC5)c(=O)n(-c5ccc(F)cc5)c4=O)cc3F)ccnc2N)CC1 [Example 60, N-(4-(2-amino-3-(3-(1-methylpiperidin-4-yl)prop-1-ynyl)pyridin-4-yloxy)-3-fluorophenyl)-3-(4-fluorophenyl)-2,4-dioxo-1-(tetrahydro-2H-pyran-4-yl)-1,2,3,4-tetrahydropyrimidine-5-carboxamide] |
| > 6.00 | > 7.00 | > 7.00 | > 6.00 | C=CCn1cc(C(=O)Nc2ccc(Oc3ccnc(N)c3C#CCN3CCOCC3)c(F)c2)c(=O)n(CC=C)c1=O [Example 67, 1,3-diallyl-N-(4-(2-amino-3-(3-morpholinoprop-1-ynyl)pyridin-4-yloxy)-3-fluorophenyl)-2,4-dioxo-1,2,3,4-tetrahydropyrimidine-5-carboxamide] |
